Laboratory results: US4550186A, “Binuclear copper (II) carboxylates formed from amine-carboxyboranes” (Duke University, priority 1983, dated 1985)

Legend:
[1] = biological target: T1, ribosomal ribonucleic acid polymerase (Mus musculus, UniProt O35134+P70700); experiment: In vivo ribosomal ribonucleic acid polymerase activity
T1 construct: enzymes isolated from nuclei; endogenous in cells; host or cells: Ehrlich ascites tumor cell nuclei, ammonium sulfate fraction
Protocol: CF1 male mice (~30 g) were implanted with 2×10^6 Ehrlich ascites tumor cells, intraperitoneally on Day 0. Compound I was suspended by homogenation in 0.05% polysorbate.80-water and administered intraperitoneally at 10 and 20 mg/kg for 9 days to determine its effectiveness for inhibition of tumor growth. Mice were sacrificed on Day 10, and the ascites fluid was collected from the peritoneal cavity. The volume and ascrit (packed cell volume) were determined for each animal and the percent inhibition of tumor growth was calculated. For the metabolic studies, mice were treated on Days 8 and 9 with 10 mg/kg of Compound I, intraperitoneally. The animal was sacrificed on Day 10 and the ascites fluid harvested. The in vitro metabolic studies were performed at […] final concentration of Compound I.
In vitro and in vivo nuclear deoxyribonucleic acid polymerase activity was determined on isolated Ehrlich ascites cell nuclei. The incubation was that described by Sawada et al [Can. Res., 34, 3341 (1974)] except that [methyl-^3 H] deoxythymidine triphosphate (82.4 Ci/mmol) was used. The acid insoluble nucleic acid was collected on GF/F filters and counted. Nuclear ribonucleic acid polymerase activities were determined on enzymes isolated from nuclei. […] The acid insoluble ribonucleic acid was collected on nitrocellulose filters and counted.

[2] = system: Acetyl CoA synthetase; experiment: In vitro liver enzyme study: acetyl CoA synthetase; type: biochemical, mouse; settings: in vitro CF1 liver, 30 min
Protocol: In vitro enzymatic studies were determined using 10% homogenates of CF1 male mouse liver with 50-200 μM of test drugs. In vivo enzymatic studies were determined using 10% homogenates of liver from CF1 male mice obtained after administering the agents for 16 days at a dose ranging from 2.5-20 mg/kg/day intraperitoneally. The liver homogenates for both in vitro and in vivo studies were prepared in 0.25M sucrose and 0.001M (ethylenedinitrilo)tetraacetic acid. Acetyl coenzyme A synthetase and adenosine triphosphate dependent citrate lyase activities were determined spectrophotometrically at 540 nm as the hydroxylamate of acetyl coenzyme A formed after 30 min at 37° C. Mitochondrial citrate exchange was determined by the procedure of Robinson et al [Eur. J. Biochem., 216, 63 (1970)] using ^14 C-sodium bicarbonate (41 mCi/mmol) incorporated into mitochondrial ^14 C-citrate after isolating rat mitochondria (9000 g×10 min) from the homogenates. The exchanges of the ^14 C-citrate were determined after incubating the mitochondrial fraction which was loaded with labeled citrate and test drugs for 10 min. Then the radioactivity was measured in the mitochondrial and supernantant fractions in scintillation fluid and expressed as a percentage. Cholesterol side chain oxidation was determined by the method of Kritchevsky and Tepper [Artherosclerosis, 18, 93 (1973)] using (26-^14 C) cholesterol (50 mCi/mmol) and mitochondria isolated from rat liver homogenates. […] Fatty acid synthetase activity was determined by the method of Brady et al [J. Biol. Chem., 235, 3093 (1960)] using [2-^14 C] malonyl-coenzyme A (37.5 mCi/mmol) which was incorporated into newly synthesized fatty acids that were extracted with ether and counted. Acyl transferase activity was determined with glycerol-3phosphate [L-2-^3 H(N)] […] HCl and counted. Phosphatidate phosphohydrolase activity was measured as the inorganic phosphate released after 30 min from phosphatidic acid by the method of Mavis et al [J. Lipid Res., 19, 467 (1978)]. […]

[3] = system: Holtzman male rats; experiment: Antihyperlipidemic screen in normal rats; type: in vivo, rat
Protocol: Compounds to be tested were suspended in 1% carboxymethylcellulose-water and administered to CF1 male mice (~25 g) intraperitoneally for 16 days or Holtzman male rats (~350 g) orally by an intubation needle for 16 days. On days 9 or 16, blood was obtained by tail vein bleeding and the serum separated by centrifugation for 3 min. The serum cholesterol levels were determined by a modification of the Liebermann-Burchard reaction as described in Ness et al, Clin. Chim. Acta, 10, 229 (1964). Serum was also collected on day 16 and the triglyceride content was determined by a commercial kit, The Fisher Hycel Triglyceride Test Kit.
Data are expressed in the Table 2-7 as percent of control ± the standard deviation. The probable significant level (P) between each test group and the control group was determined by the Student's "t" test.

[4] = Organ weights; type: in vivo, rat; settings: for Organ Weight: 14 days 10 mg/Kg/Day, Treated
Description: Periodic animal weights were obtained during the experiments and expressed as a percentage of the animal's weight on day 0. After dosing for 14 days with test drugs, selected organs were excised, trimmed of fat and weighed. The organ weights were expressed as a percentage of the total body weight of the animal.

[5] = rats orally, 10.0 mg/kg, Day 16

T1 sequence (P52432 whole entry): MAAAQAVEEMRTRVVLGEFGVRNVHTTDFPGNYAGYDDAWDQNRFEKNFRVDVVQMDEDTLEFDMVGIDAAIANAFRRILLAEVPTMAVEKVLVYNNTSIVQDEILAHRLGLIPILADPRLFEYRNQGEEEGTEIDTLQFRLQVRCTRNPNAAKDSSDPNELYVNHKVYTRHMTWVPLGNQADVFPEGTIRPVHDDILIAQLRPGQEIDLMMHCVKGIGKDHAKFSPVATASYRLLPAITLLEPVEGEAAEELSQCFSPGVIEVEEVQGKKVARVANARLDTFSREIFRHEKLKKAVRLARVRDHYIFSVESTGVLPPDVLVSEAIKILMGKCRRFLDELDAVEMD
T1 sequence (Q791N7 whole entry, further chain): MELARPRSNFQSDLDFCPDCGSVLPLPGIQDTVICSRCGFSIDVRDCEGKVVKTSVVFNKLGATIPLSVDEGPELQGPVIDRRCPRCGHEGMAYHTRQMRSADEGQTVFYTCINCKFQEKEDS
T1 sequence (P97304 whole entry, further chain): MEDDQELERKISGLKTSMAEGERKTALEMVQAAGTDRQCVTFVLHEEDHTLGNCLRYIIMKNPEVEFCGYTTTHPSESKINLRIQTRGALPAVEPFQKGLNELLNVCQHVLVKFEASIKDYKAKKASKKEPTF
T1 sequence (Q78WZ7 whole entry, further chain): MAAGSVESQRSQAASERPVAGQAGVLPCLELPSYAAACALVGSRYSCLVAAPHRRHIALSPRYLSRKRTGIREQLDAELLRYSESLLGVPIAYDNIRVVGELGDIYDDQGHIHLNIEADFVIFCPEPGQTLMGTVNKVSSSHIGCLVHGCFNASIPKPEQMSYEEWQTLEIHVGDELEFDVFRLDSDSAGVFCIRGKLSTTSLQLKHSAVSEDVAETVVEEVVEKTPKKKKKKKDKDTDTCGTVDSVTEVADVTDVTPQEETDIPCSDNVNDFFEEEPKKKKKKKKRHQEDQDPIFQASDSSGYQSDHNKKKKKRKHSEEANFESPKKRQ
T1 sequence (P70700 whole entry): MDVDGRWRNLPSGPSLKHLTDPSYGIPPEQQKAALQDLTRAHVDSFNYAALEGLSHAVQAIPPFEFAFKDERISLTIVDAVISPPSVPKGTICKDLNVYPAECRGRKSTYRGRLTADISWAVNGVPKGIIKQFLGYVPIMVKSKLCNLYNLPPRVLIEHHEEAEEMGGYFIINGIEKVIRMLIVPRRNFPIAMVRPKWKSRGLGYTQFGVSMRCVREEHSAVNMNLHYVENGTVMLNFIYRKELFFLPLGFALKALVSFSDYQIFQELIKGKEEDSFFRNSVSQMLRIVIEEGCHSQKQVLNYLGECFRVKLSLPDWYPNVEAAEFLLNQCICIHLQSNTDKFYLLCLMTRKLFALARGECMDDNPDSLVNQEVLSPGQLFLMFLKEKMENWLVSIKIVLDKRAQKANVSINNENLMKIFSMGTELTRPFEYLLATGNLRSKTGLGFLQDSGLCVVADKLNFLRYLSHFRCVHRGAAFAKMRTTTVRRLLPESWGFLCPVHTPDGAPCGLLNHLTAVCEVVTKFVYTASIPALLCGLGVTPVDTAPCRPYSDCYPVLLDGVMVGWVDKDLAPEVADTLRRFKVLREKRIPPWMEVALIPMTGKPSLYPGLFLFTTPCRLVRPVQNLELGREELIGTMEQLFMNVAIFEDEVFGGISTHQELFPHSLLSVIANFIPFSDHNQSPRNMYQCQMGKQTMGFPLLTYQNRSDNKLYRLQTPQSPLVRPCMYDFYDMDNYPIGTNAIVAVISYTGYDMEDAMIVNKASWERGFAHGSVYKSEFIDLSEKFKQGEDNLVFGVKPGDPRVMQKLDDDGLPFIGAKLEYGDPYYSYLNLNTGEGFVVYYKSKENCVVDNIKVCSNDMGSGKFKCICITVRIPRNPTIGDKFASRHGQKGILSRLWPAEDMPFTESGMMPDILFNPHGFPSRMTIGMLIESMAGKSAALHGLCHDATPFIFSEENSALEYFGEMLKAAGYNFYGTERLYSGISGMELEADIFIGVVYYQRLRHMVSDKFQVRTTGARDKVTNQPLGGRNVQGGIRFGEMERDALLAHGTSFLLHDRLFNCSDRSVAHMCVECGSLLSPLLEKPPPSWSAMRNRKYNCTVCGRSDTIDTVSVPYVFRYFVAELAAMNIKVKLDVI
T1 sequence (O35134 whole entry): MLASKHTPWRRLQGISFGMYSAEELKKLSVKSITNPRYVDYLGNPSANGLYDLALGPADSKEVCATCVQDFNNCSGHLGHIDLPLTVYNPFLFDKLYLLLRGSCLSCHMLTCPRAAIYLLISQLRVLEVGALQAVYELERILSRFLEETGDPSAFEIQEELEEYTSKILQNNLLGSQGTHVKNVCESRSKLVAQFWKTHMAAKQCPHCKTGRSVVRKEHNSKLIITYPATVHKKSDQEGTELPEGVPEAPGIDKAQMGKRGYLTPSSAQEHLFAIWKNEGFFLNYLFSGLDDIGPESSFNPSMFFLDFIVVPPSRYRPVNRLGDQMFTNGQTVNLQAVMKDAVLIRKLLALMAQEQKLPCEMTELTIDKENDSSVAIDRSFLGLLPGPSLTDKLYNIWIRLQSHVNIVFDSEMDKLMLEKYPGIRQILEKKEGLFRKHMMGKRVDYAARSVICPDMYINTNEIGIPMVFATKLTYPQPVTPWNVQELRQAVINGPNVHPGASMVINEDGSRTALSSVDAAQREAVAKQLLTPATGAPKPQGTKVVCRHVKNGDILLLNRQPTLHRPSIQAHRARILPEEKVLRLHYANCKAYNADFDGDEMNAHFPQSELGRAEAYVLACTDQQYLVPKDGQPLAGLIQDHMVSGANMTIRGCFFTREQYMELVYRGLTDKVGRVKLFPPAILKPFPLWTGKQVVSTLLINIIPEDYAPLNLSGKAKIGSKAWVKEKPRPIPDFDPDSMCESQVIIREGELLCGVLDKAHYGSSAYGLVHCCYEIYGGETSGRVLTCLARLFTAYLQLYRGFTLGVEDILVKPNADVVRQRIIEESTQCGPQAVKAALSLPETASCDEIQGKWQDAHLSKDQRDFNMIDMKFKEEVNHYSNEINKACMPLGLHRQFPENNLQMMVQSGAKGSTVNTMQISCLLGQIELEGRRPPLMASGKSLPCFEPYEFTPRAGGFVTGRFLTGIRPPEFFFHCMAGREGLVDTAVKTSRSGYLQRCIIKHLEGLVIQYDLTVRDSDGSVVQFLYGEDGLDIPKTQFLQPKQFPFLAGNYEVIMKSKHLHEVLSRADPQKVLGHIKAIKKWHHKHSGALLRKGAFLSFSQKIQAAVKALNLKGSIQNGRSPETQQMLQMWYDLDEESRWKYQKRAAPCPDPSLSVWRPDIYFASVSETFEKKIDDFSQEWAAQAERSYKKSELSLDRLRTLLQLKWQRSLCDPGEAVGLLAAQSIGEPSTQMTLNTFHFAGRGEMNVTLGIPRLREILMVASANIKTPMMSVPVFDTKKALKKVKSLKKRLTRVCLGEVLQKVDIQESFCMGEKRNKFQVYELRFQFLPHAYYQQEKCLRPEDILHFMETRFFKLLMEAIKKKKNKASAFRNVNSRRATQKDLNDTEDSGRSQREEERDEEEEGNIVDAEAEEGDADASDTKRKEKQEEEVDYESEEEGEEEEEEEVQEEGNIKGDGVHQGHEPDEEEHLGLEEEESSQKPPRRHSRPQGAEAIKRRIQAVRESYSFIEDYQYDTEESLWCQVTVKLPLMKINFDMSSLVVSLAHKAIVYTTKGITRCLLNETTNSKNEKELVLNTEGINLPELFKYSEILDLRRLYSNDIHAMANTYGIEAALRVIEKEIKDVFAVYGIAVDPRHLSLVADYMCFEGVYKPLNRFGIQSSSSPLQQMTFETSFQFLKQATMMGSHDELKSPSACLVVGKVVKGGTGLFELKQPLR

In the case of “{Cu[(CH3)3 N.BH2 CO2 ]2.(CH3)3 N.BH2 COOH} [Compound I]”, the “ribosomal ribonucleic acid polymerase activity” value [1] is reported as “not affected”, the “Ribosmoal ribonucleic acid polymerase activity” value ([1]; 10 mg/kg/day I.P. on Days 8 and 9) is reported as 96 ± 11 % Control and the “Acetyl CoA synthetase” value ([2]; 50 μM) is reported as 104 ± 5 Percent Control. The “Acetyl CoA synthetase” value ([2]; 100 μM) was 87 ± 4 Percent Control, the “Acetyl CoA synthetase” value ([2]; 200 μM) was 84 ± 5 Percent Control and the “Serum Cholesterol” value ([3]; rats orally, 10.0 mg/kg, Day 9) was 63 ± 5 % Control. For the same substance, the “Serum Cholesterol” value [3, 5] was 65 ± 5 % Control, the “Serum Triglyceride” value [3, 5] was 36 ± 4 % Control and the “Serum triglyceride levels reduced” value ([3]; rats, 10 mg/kg/day) was 64%. The “reduction in serum cholesterol levels” value ([3]; rats, 10 mg/kg/day) was 37%, the Adrenal weights ([4]; after drug administration) was “not altered” and the “Organ Weight” value ([4]; rat Adrenal) was 0.031 gm. For the same substance, the “Organ Weight” value ([4]; rat Brain) was 1.666 gm, the “Organ Weight” value ([4]; rat Chyme) was 5.9333 gm and the “Organ Weight” value ([4]; rat Feces) was 8.633 gm. The “Organ Weight” value ([4]; rat Heart) was 1.021 gm, the “Organ Weight” value ([4]; rat Kidney) was 2.167 gm and the “Organ Weight” value ([4]; rat Large Intestine) was 4.233 gm. The “Organ Weight” value ([4]; rat Liver) was 10.600 gm, the “Organ Weight” value ([4]; rat Lung) was 1.933 gm and the “Organ Weight” value ([4]; rat Small Intestine) was 6.433 gm. The “Organ Weight” value ([4]; rat Spleen) was 0.501 gm and the “Organ Weight” value ([4]; rat Stomach) was 1.766 gm.
